Assay [1] deals with T1, human EP1 receptor (Homo sapiens, UniProt P34995).
T1 sequence (P34995 1-402): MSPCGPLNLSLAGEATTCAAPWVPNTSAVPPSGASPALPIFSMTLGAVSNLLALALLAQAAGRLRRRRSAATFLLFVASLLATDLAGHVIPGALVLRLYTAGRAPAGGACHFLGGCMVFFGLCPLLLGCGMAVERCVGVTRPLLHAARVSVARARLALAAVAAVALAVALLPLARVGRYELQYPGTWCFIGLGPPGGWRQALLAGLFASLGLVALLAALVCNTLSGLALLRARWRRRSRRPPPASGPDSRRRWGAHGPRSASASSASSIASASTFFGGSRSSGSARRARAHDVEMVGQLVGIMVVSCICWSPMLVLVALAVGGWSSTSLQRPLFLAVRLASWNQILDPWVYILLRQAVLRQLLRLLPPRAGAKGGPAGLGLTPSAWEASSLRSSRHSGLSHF
Put plainly: Test 2: Measurement of IP1 responses by HTRF, suspended HEK-293 cells stably expressing human EP1 receptors, PGE2 30 nM. Format: cell-based. Also noted: expressed in transfected cells. Particulars: HEK293, at 10 μM, read-out: Results of Test 2 (Functional assay), % inh. In a few lines: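 Suspended cells preincubated with compound for 15 min at 37 °C, then stimulated with 30 nM PGE2 for 90 min at 37 °C. IP1 quantified by competitive HTRF (665/620 nm) after lysis. Percent inhibition scaled between PGE2 alone (0%) and PGE2 plus 1 μM reference antagonist (100%).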
In general terms: Time-resolved FRET reads energy transfer from a long-lived donor to a nearby acceptor.

The target in assay [2] is T1, human EP1 receptor. In words: Test 1: Human EP1 receptor radioligand binding assay ([3H]-PGE2, transfected HEK-293 cell membranes). Details: expressed in transfected cells; host or cells: HEK-293 cell membranes. Particulars: read-out: Results of Test 1 (Binding assay), % inh. How it is done: Test 1: Human EP1 Receptor Radioligand Binding Assay
To investigate binding properties of EP1 receptor ligands to human EP1 receptor, transfected HEK-293 cell membranes and [3H]-PGE2 (Perkin Elmer) were used. In 96-well plates the assay was carried out with a total reaction volume of 250 μl, containing 25 μl of membrane suspension (30 μg protein/well), 25 μl of [3H]-PGE2 (10 nM) in either absence or presence of 25 μl of either buffer or PGE2 (10 μM) for total and non-specific binding, respectively. Binding buffer contained 10 mM MES, 1 mM MgCl2 and 1 mM EDTA at pH 6.0. Plates were incubated at 25° C. for 60 minutes. After the incubation period, 200 μl of incubate were transferred to MultiScreen HTS, FB plates (Millipore), filtered and plates were washed 6 times with ice-cold 10 mM MES, 1 mM MgCl2 and 1 mM EDTA at pH 6.0. Filters were dried and counted in a MicroBeta scintillation counter (Perkin-Elmer) using EcoScint liquid scintillation cocktail.
Percentage inhibition was calculated relating compounds activity to the 0% inhibition of the wells incubated with 10 nM [3H]-PGE2 alone (total binding) and 100% inhibition of the wells incubated with 10 nM [3H]-PGE2 plus 10 μM PGE2 (non-specific binding).

Assay [3] has as its target T1, human EP1 receptor. Put plainly: Test 3: Measurement of IP1 responses by HTRF, HEK-293 cells stably expressing human EP1 receptors incubated o/n, PGE2 10 nM. Particulars: HEK293, read-out: Results of Test 3 (Functional assay), % inh. Also noted: expressed in transfected cells. It is filed as cell-based. How it is done: Test 3: Measurement of IP1 Responses by Homogeneous Time Resolved Fluorescence
IP1 measurements on HEK-293 cells that stably expressed human EP1 receptors were performed by using a system based on Homogeneous Time Resolved Fluorescense (HTRF) (Gabriel et al., 2003). This technology allows the direct measurement of IP1 in living cells. The principle of this assay is based on competition between IP1 produced by cells and IP1-d2 conjugate for the binding with monoclonal anti-IP1-cryptate conjugate. The HTRF IP1 kit from CisBio was used according to the manufacturer's directions. The experimental procedure was performed as stated below.
40,000 cells per well were added to 96-well culture plates in 40 μl of Optimem and incubated o/n at 37° C. Optimem was replaced by 40 μl of stimulation buffer (supplied by the kit) and compounds were then added in 20 μl of stimulation buffer and incubated at 37° C. for 15 minutes followed by 10 μl of PGE2 to a final concentration of 10 nM. After 90 minutes at 37° C., the reaction was stopped lysing the cells with a mixture of 15 μl of cryptate and 15 μl of IP1-d2 prepared in the lysis buffer supplied by the manufacturer. Plates were incubated for an additional hour at room temperature and read at 665 nm/620 nm using an UltraEvolution Plate reader (Tecan).
Antagonist percentage inhibition was calculated relating compounds activity to the 0% inhibition of the wells incubated with 10 nM PGE2 alone and 100% inhibition of the wells incubated with 10 nM PGE2 plus 10 μM of the reference antagonist.

Consider `O=C(O)c1cccc2c1ccn2Cc1cc(Cl)ccc1OCc1ccc(C(F)(F)F)cc1` [Example 11, 1-(5-chloro-2-((4-(trifluoromethyl)benzyl)oxy)benzyl)-1H-indole-4-carboxylic acid], for which the inhibition at 10 µM on human EP1 receptor [1] and on human EP1 receptor [2] was more than 75% in each case.
For the compound `O=C(O)c1cccc2c1ccn2Cc1cc(Cl)ccc1OCc1ccc(F)cc1Cl` [Example 12, 1-(5-chloro-2-((2-chloro-4-fluorobenzyl)oxy)benzyl)-1H-indole-4-carboxylic acid], the inhibition at 10 µM at human EP1 receptor [1] and at human EP1 receptor [2] was more than 75% each time.
On to `O=C(O)c1cccc2c1ccn2Cc1cc(Cl)ccc1OCc1c(F)c(F)cc(F)c1F` [Example 13, 1-(5-chloro-2-((2,3,5,6-tetrafluorobenzyl)oxy)benzyl)-1H-indole-4-carboxylic acid], for which the inhibition at 10 µM is more than 75% at human EP1 receptor [1] and 45 to 75% on human EP1 receptor [2].
As to `O=C(O)c1cccc2c1ccn2Cc1cc(Cl)ccc1OCc1ccc(C(F)(F)F)cc1C(F)(F)F` [Example 14], the inhibition at 10 µM on human EP1 receptor [1] and at human EP1 receptor [2] was more than 75% in each case.
`O=C(O)c1cccc2c1ccn2Cc1cc(Cl)ccc1OCc1ccc(F)c(Br)c1` [Example 17, 1-(2-((3-bromo-4-fluorobenzyl)oxy)-5-chlorobenzyl)-1H-indole-4-carboxylic acid]: the inhibition at 10 µM is more than 75% at human EP1 receptor [1] and 45 to 75% at human EP1 receptor [2].
Consider `O=C(O)c1cccc2c1ccn2Cc1cc(F)ccc1OCc1ccc(F)cc1Cl` [Example 19, 1-(2-((2-chloro-4-fluorobenzyl)oxy)-5-fluorobenzyl)-1H-indole-4-carboxylic acid], for which the values for the inhibition at 10 µM at human EP1 receptor [1] and on human EP1 receptor [2] were more than 75% and 45 to 75%, respectively.
Consider `O=C(O)c1cccc2c1ccn2Cc1cc(Cl)ccc1OCc1ccc(F)c(F)c1F` [Example 21, 1-(5-chloro-2-((2,3,4-trifluorobenzyl)oxy)benzyl)-1H-indole-4-carboxylic acid], for which the inhibition at 10 µM at human EP1 receptor [1] is more than 75%; at human EP1 receptor [2], 45 to 75%.
As for `O=C(O)c1cccc2c1ccn2Cc1cc(F)ccc1OCc1ccc(F)c(Br)c1` [Example 24, 1-(2-((3-bromo-4-fluorobenzyl)oxy)-5-fluorobenzyl)-1H-indole-4-carboxylic acid], the inhibition at 10 µM at human EP1 receptor [1] was more than 75%; at human EP1 receptor [2], 45 to 75%.
Consider `O=C(O)c1cccc2c1ccn2Cc1cc(Br)ccc1OCc1ccc(F)c(Br)c1` [Example 25, 1-(5-bromo-2-((3-bromo-4-fluorobenzyl)oxy)benzyl)-1H-indole-4-carboxylic acid], for which the inhibition at 10 µM on human EP1 receptor [1] is more than 75%; at human EP1 receptor [2], 45 to 75%.
Taken in the same sequence, the figures for `O=C(O)c1cccc2c1ccn2Cc1cc(Cl)ccc1OCc1cc(F)ccc1F` [Example 29, 1-(5-chloro-2-((2,5-difluorobenzyl)oxy)benzyl)-1H-indole-4-carboxylic acid] were more than 75% and more than 75%.
Taken in the same sequence, the figures for `O=C(O)c1cccc2c1ccn2Cc1cc(F)ccc1OCc1c(F)cccc1F` [Example 33, 1-(2-((2,6-difluorobenzyl)oxy)-5-fluorobenzyl)-1H-indole-4-carboxylic acid] were more than 75% and 45 to 75%.
Taken in the same sequence, the figures for `O=C(O)c1cccc2c1ccn2Cc1cc(F)ccc1OCc1cc(F)c(F)c(F)c1` [Example 34, 1-(5-fluoro-2-((3,4,5-trifluorobenzyl)oxy)benzyl)-1H-indole-4-carboxylic acid] were more than 75% and 45 to 75%.
For `O=C(O)c1cccc2c1ccn2Cc1cc(Cl)ccc1OCc1ccccc1F` [Example 45, 1-(5-chloro-2-((2-fluorobenzyl)oxy)benzyl)-1H-indole-4-carboxylic acid], the inhibition at 10 µM at human EP1 receptor [1] and at human EP1 receptor [2] was more than 75% each time.
`O=C(O)c1cccc2c1ccn2Cc1cc(Cl)ccc1OCc1ccc(C(F)(F)F)cc1F` [Example 47, 1-(5-chloro-2-((2-fluoro-4-(trifluoromethyl)benzyl)oxy)benzyl)-1H-indole-4-carboxylic acid]: the inhibition at 10 µM at human EP1 receptor [1] and on human EP1 receptor [2] was more than 75% throughout.
As to `O=C(O)c1cccc2c1ccn2Cc1cc(Cl)ccc1OCc1ccc(Cl)cc1F` [Example 48, 1-(5-chloro-2-((4-chloro-2-fluorobenzyl)oxy)benzyl)-1H-indole-4-carboxylic acid], the inhibition at 10 µM on human EP1 receptor [1] and on human EP1 receptor [2] was more than 75% in each case.
As to `O=C(O)c1cccc2c1ccn2Cc1cc(C(F)(F)F)ccc1OCc1cccc(F)c1` [Example 49, 1-(2-((3-fluorobenzyl)oxy)-5-(trifluoromethyl)benzyl)-1H-indole-4-carboxylic acid], the inhibition at 10 µM is more than 75% at human EP1 receptor [1] and 45 to 75% on human EP1 receptor [2].
Take `O=C(O)c1cccc2c1ccn2Cc1cc(C(F)(F)F)ccc1OCc1ccc(F)cc1F` [Example 51, 1-(2-((2,4-difluorobenzyl)oxy)-5-(trifluoromethyl)benzyl)-1H-indole-4-carboxylic acid]: the inhibition at 10 µM at human EP1 receptor [1] was more than 75%; at human EP1 receptor [2], 45 to 75%.
Taken in the same sequence, the figures for `O=C(O)c1cccc2c1ccn2Cc1ccccc1OCc1ccc(F)cc1F` [Example 54, 1-(2-((2,4-difluorobenzyl)oxy)benzyl)-1H-indole-4-carboxylic acid] were more than 75% and 45 to 75%.
As to `O=C(O)c1cccc2c1ccn2Cc1cc(Br)ccc1OCc1ccc(Br)cc1F` [Example 55, 1-(5-bromo-2-((4-bromo-2-fluorobenzyl)oxy)benzyl)-1H-indole-4-carboxylic acid], the inhibition at 10 µM at human EP1 receptor [1] and on human EP1 receptor [2] was more than 75% each time.
On to `O=C(O)c1ccc2c(ccn2Cc2cc(F)ccc2OCc2ccc(F)c(Br)c2)c1` [Example 68, 1-(2-((3-bromo-4-fluorobenzyl)oxy)-5-fluorobenzyl)-1H-indole-5-carboxylic acid], for which the inhibition at 10 µM is more than 75% at human EP1 receptor [1] and 45 to 75% at human EP1 receptor [2].
Turning to `O=C(O)c1ccc2c(ccn2Cc2cc(Br)ccc2OCc2ccc(F)cc2C(F)(F)F)c1` [Example 69], the inhibition at 10 µM is more than 75% at human EP1 receptor [1] and 45 to 75% at human EP1 receptor [2].
In the case of `O=C(O)c1ccc2c(ccn2Cc2cc(C(F)(F)F)ccc2OCc2ccc(Br)cc2F)c1` [Example 75, 1-(2-((4-bromo-2-fluorobenzyl)oxy)-5-(trifluoromethyl)benzyl)-1H-indole-5-carboxylic acid], the inhibition at 10 µM at human EP1 receptor [1] was more than 75%; on human EP1 receptor [2] it was 45 to 75%.
Taken in the same sequence, the figures for `O=C(O)c1ncnc2c1ccn2Cc1cc(Cl)ccc1OCc1ccc(F)cc1F` [Example 99] were more than 75% and more than 75%.
For `O=C(O)c1cccc2c1OCC(=O)N2Cc1cc(Br)ccc1OCc1ccc(Cl)cc1F` [Example 115], the inhibition at 10 µM at human EP1 receptor [3] and at human EP1 receptor [2] was more than 75% each time.
`O=C(O)c1cccc2c1OCCN2Cc1cc(Cl)ccc1OCc1ccc(Cl)cc1F` [Example 117]: the inhibition at 10 µM at human EP1 receptor [3] and at human EP1 receptor [2] was more than 75% in each case.

For the origin of these results see patent US9518015B2, “EP1 receptor ligands” (LABORATORIOS DEL DR. ESTEVE, S.A., priority 2011, dated 2016).
